We go through 35 molecules from US20220324865A1 (Bayer Aktiengesellschaft, priority 2018, published 2022).

The assay has as its target T1, human EP3 receptor (Homo sapiens, UniProt P43115).
T1 construct: expressed in transfected cells; host or cells: CHO K1 (Chinese Hamster Ovary), stably co-transfected with Galpha16 and mitochondrial clytin
T1 sequence (P43115 1-390): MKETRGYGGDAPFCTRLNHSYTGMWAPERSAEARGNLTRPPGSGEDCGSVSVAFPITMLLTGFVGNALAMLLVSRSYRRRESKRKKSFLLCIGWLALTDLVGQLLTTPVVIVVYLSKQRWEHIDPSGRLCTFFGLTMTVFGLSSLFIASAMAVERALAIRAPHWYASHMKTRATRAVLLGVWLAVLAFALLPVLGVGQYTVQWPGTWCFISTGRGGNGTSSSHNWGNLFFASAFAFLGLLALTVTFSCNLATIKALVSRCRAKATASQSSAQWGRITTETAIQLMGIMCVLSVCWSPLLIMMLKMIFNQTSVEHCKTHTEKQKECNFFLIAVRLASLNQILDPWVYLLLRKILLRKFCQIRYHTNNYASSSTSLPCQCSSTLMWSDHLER
The assay can be described thus: Cellular in vitro assay for determining EP3 receptor activity (human EP3 cell line, sulprostone-stimulated calcium luminescence). It counts as cell-based. The settings on record: CHO cells expressing human EP3 and mitochondrial Clytin; antagonist mode, sulprostone at EC50; read-out: EP3 CHO mtCLY ANTAG IC50. An outline of the steps: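 Antagonist activity was measured as inhibition of the luminescent calcium signal elicited by EC50 sulprostone, following 10 min compound pretreatment. The cell line was recombinant CHO K1 co-expressing human EP3, Gα16 and the photoprotein Clytin, reconstituted with coelenterazine.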
Consider `CN1CC(NC(=O)c2nn3cc(-c4ccc(Cl)c(Cl)c4)[nH]c(=O)c3c2C2CC2)(c2ccc(F)cc2)C1` [Example 1-170, 3-Cyclopropyl-6-(3,4-dichlorophenyl)-N-[3-(4-fluorophenyl)-1-methylazetidin-3-yl]-4-oxo-4,5-dihydropyrazolo[1,5-a]pyrazine-2-carboxamide], for which the IC50 – broadly, the concentration that inhibits the measured activity by half – was determined as 2.5 nM.

For `Cc1cccc2ncc(-c3cn4nc(C(=O)NC5(C)CCS(=O)(=O)C5)c(C(C)C)c4c(=O)[nH]3)cc12` (centres unmarked) [Example 4-17, 3-Isopropyl-N-(3-methyl-1,1-dioxothiolan-3-yl)-6-(5-methyl-3-quinolyl)-4-oxo-5H-pyrazolo[1,5-a]pyrazine-2-carboxamide], the concentration for half-maximal inhibition (IC50) was determined as 2.45 nM. For the molecule `Cc1cccc2ncc(-c3cn4nc(C(=O)NC(C)c5cccc(Br)c5)c(C(C)C)c4c(=O)[nH]3)cc12` (centres unmarked) [Example 4-62, N-[1-(3-Bromophenyl)ethyl]-3-isopropyl-6-(5-methyl-3-quinolyl)-4-oxo-5H-pyrazolo[1,5-a]pyrazine-2-carboxamide], the 50% inhibitory concentration (IC50) was 2.05 nM. `Cc1cccc2ncc(-c3cn4nc(C(=O)NC5(c6ccccc6)CCCC5)c(C(C)C)c4c(=O)[nH]3)cc12` [Example 4-73, 6-(5-Methylquinolin-3-yl)-4-oxo-N-(1-phenylcyclopentyl)-3-(propan-2-yl)-4,5-dihydropyrazolo[1,5-a]pyrazine-2-carboxamide]: the IC50 stood at 2.35 nM. Regarding `CCn1nccc1CNC(=O)c1nn2cc(-c3cnc4cccc(C)c4c3)[nH]c(=O)c2c1C(C)C` [Example 4-16, N-[(1-Ethyl-1H-pyrazol-5-yl)methyl]-6-(5-methylquinolin-3-yl)-4-oxo-3-(propan-2-yl)-4,5-dihydropyrazolo[1,5-a]pyrazine-2-carboxamide], the IC50 was 0.5 nM.

Take `Cc1cc(-c2cn3nc(C(=O)N[C@H](C)C4CC4)c(C(C)C)c3c(=O)[nH]2)ccc1Cl` [6-609]: the concentration for half-maximal inhibition (IC50) came out at 1.5 nM. For `C[C@@H](NC(=O)c1cc2c(=O)[nH]c(-c3ccc4cccc(F)c4c3)cn2n1)c1ccc(F)cc1` [6-38], the IC50 came out at 1.45 nM. In the case of `Cc1ccc(-c2cn3nc(C(=O)NC(C)c4ccc(O)cc4)cc3c(=O)[nH]2)cc1C` (single isomer, unassigned) [6-348], the IC50 was determined as 3.55 nM. For `CCC(CNC(=O)c1cc2c(=O)[nH]c(-c3ccc4ccccc4c3)cn2n1)n1cc(Cl)cn1` (centres unmarked) [Example 2-10, N-[2-(4-Chlor-1H-pyrazol-1-yl)butyl]-6-(2-naphthyl)-4-oxo-4,5-dihydropyrazolo[1,5-a]pyrazine-2-carboxamide] the value was 1.7 nM.

Regarding `Cc1cc(-c2cn3nc(C(=O)NC(c4ccc(F)cc4)C4(O)CC4)c(C(F)(F)F)c3c(=O)[nH]2)ccc1Cl` (single isomer, unassigned) [6-212], the IC50 was 8.15 nM. For `O=C(NC(CO)c1ccc(F)cc1)c1cc2c(=O)[nH]c(-c3ccc4cccnc4c3)cn2n1` (centres unmarked) [6-30] the value was 2.15 nM; for `Cc1ccc(-c2cn3nc(C(=O)NCCC(O)C(F)(F)F)c(C4CC4)c3c(=O)[nH]2)cc1F` (single isomer, unassigned) [6-368], 0.87 nM; for `Cc1ccc(-c2cn3nc(C(=O)NC(C)C4CC4)c(C(F)(F)F)c3c(=O)[nH]2)cc1F` (racemic) [6-147], 5.6 nM.

In the case of `Cc1cccc2ncc(-c3cn4nc(C(=O)NCCCS(C)(=O)=O)c(C(C)C)c4c(=O)[nH]3)cc12` [Example 4-35, N-[3-(Methansulfonyl)propyl]-6-(5-methylquinolin-3-yl)-4-oxo-3-(propan-2-yl)-4,5-dihydropyrazolo[1,5-a]pyrazine-2-carboxamide], the 50% inhibitory concentration (IC50) is 1.9 nM. As to `Cc1ccc(-c2cn3nc(C(=O)N[C@H](CCO)c4ccc(F)cc4)c(C(F)(F)F)c3c(=O)[nH]2)cc1C` [Example 1-94, 6-(3,4-Dimethylphenyl)-N-[(1R)-1-(4-fluorophenyl)-3-hydroxpropyl]-4-oxo-3-(trifluoromethyl)-4,5-dihydropyrazolo[1,5-a]pyrazine-2-carboxamide], the IC50 amounted to 0.765 nM. For `Cc1ccnc(C(C)NC(=O)c2nn3cc(-c4cnc5cccc(C)c5c4)[nH]c(=O)c3c2C(C)C)n1` (centres unmarked) [Example 4-47, 3-Isopropyl-N-[1-(4-methylpyrimidin-2-yl)ethyl]-6-(5-methyl-3-quinolyl)-4-oxo-5H-pyrazolo[1,5-a]pyrazine-2-carboxamide] the value was 3.1 nM; for `COCc1c(C(=O)N[C@H](C)c2ccc(OC)nc2)nn2cc(-c3ccc4ccccc4c3)[nH]c(=O)c12` [Example 1-22, 3-(Methoxymethyl)-N-[(1R)-1-(6-methoxypyridin-3-yl)ethyl]-6-(naphthalen-2-yl)-4-oxo-4,5-dihydropyrazolo[1,5-a]pyrazine-2-carboxamide], 0.37 nM; for `Cc1cccc2ncc(-c3cn4nc(C(=O)N[C@H](C)c5ccccc5)c(C(C)C)c4c(=O)[nH]3)cc12` [Example 4-27, 6-(5-Methylquinolin-3-yl)-4-oxo-N-[(1R)-1-phenylethyl]-3-(propan-2-yl)-4,5-dihydropyrazolo[1,5-a]pyrazine-2-carboxamide], 1.2 nM. For the molecule `Cc1ccc(-c2cn3nc(C(=O)N[C@@H](c4ccc(F)cc4)C(C)(C)O)c(C4CCC4)c3c(=O)[nH]2)cc1F` [6-573], the IC50 is 1.25 nM. For `Cc1ccc(-c2cn3nc(C(=O)NC4CCN(CC(F)(F)F)C4)c(C4CC4)c3c(=O)[nH]2)cc1F` (single isomer, unassigned) [6-390] the value was 8.5 nM; for `Cc1ccc(-c2cn3nc(C(=O)NCCN(CC(F)F)C4CC4)c(C4CC4)c3c(=O)[nH]2)cc1F` [6-379], 1.8 nM; for `COc1ccc(C(C)NC(=O)c2cc3c(=O)[nH]c(-c4ccc(Cl)c(C)c4)cn3n2)cn1` (centres unmarked) [Example 1-107, 6-(4-Chloro-3-methylphenyl)-N-[1-(6-methoxypyridin-3-yl)ethyl]-4-oxo-4,5-dihydropyrazolo[1,5-a]-pyrazine-2-carboxamide], 3.97 nM.

On to `Cc1ccc(-c2cn3nc(C(=O)NCC(O)(C(F)(F)F)C(F)(F)F)c(C4CC4)c3c(=O)[nH]2)cc1F` [6-403], for which the IC50 was found to be 0.69 nM. As to `CC(NC(=O)c1cc2c(=O)[nH]c(-c3ccc4ccccc4c3)cn2n1)c1ccc(F)cc1` (centres unmarked) [6-19], the half-maximal inhibitory concentration (IC50) was 3.1 nM.

For `CC(NC(=O)c1cc2c(=O)[nH]c(-c3ccc4ccccc4c3)cn2n1)c1ccc(Cl)cc1Cl` (centres unmarked) [Example 2-47, N-[1-(2,4-Dichlorphenyl)ethyl]-6-(2-naphthyl)-4-oxo-4,5-dihydropyrazolo[1,5-a]pyrazine-2-carboxamide], the IC50 was determined as 3.27 nM. Take `Cc1ccc(-c2cn3nc(C(=O)N[C@@H](c4ccc(F)cc4)C(F)(F)CO)c(C(F)(F)F)c3c(=O)[nH]2)cc1Cl` [6-157]: the 50% inhibitory concentration (IC50) came out at 0.92 nM.

With `COc1ccc(C(C)NC(=O)c2nn3cc(-c4ccc5ccccc5c4)[nH]c(=O)c3c2C#N)cc1` (centres unmarked) [Example 3-51, 3-Cyano-N-[1-(4-methoxyphenyl)ethyl]-6-(2-naphthyl)-4-oxo-5H-pyrazolo[1,5-a]pyrazine-2-carboxamide], the half-maximal inhibitory concentration (IC50) came out at 1.85 nM. As for `O=C(N[C@H](CN1CC(F)C1)C1CC1)c1nn2cc(-c3ccc4ccccc4c3)[nH]c(=O)c2c1C(F)(F)F` [6-513], the IC50 amounted to 7.1 nM. `Cc1ccc(-c2cn3nc(C(=O)NCC(O)C(F)(F)F)c(C4CC4)c3c(=O)[nH]2)cc1F` (racemic) [Example 1-159, 3-Cyclopropyl-6-(3-fluoro-4-methylphenyl)-4-oxo-N-(3,3,3-trifluoro-2-hydroxpropyl)-4,5-dihydro-pyrazolo[1,5-a]pyrazine-2-carboxamide (racemate)]: the IC50 came out at 2 nM. The result for `CCC1(NC(=O)c2cc3c(=O)[nH]c(-c4ccc5ccccc5c4)cn3n2)CN(C(=O)OC(C)(C)C)C1` [Example 1-5, tert.-Butyl 3-ethyl-3-({[6-(naphthalen-2-yl)-4-oxo-4,5-dihydropyrazolo[1,5-a]pyrazin-2-yl]carbonyl}-amino)azetidine-1-carboxylate] reads 2.7 nM; that for `Cc1ccc(-c2cn3nc(C(=O)NC4(c5ccc(F)cc5)CN(C)C4)c(C(F)(F)F)c3c(=O)[nH]2)cc1C` [Example 1-93, 6-(3,4-Dimethylphenyl)-N-[3-(4-fluorophenyl)-1-methylazetidin-3-yl]-4-oxo-3-(trifluoromethyl)-4,5-dihydropyrazolo[1,5-a]pyrazine-2-carboxamide], 3.58 nM.

As for `Cc1cccc2ncc(-c3cn4nc(C(=O)NCc5cccc(CN6CCCC6)c5)c(C(C)C)c4c(=O)[nH]3)cc12` [Example 4-81, 6-(5-Methylquinolin-3-yl)-4-oxo-3-(propan-2-yl)-N-({3-[(pyrrolidin-1-yl)methyl]phenyl}methyl)-4,5-dihydropyrazolo[1,5-a]pyrazine-2-carboxamide], the IC50 came to 4.45 nM. For `CC(C)(O)[C@@H](NC(=O)c1nn2cc(-c3ccc(Cl)c(F)c3)[nH]c(=O)c2c1C(F)(F)C(F)(F)F)c1ccc(F)cc1` [6-493] the value was 2.98 nM. On to `COc1ccc(C(NC(=O)c2nn3c(C)c(-c4ccc5ccccc5c4)[nH]c(=O)c3c2C)C2CC2)cc1` (centres unmarked) [Example 3-35, N-[Cyclopropyl(4-methoxyphenyl)methyl]-3,7-dimethyl-6-(2-naphthyl)-4-oxo-5H-pyrazolo[1,5-a]pyrazine-2-carboxamide], for which the IC50 is 5.05 nM. With `Cc1ccc(-c2cn3nc(C(=O)NCC(O)C(F)F)c(C4CC4)c3c(=O)[nH]2)cc1F` (racemic) [6-369], the half-inhibitory concentration (IC50) came to 3.05 nM.
